Assay [1] addresses T1, human SGLT2 (Homo sapiens, UniProt P31639).
T1 construct: expressed in transfected cells; host or cells: CHO-K1
T1 sequence (P31639 1-672): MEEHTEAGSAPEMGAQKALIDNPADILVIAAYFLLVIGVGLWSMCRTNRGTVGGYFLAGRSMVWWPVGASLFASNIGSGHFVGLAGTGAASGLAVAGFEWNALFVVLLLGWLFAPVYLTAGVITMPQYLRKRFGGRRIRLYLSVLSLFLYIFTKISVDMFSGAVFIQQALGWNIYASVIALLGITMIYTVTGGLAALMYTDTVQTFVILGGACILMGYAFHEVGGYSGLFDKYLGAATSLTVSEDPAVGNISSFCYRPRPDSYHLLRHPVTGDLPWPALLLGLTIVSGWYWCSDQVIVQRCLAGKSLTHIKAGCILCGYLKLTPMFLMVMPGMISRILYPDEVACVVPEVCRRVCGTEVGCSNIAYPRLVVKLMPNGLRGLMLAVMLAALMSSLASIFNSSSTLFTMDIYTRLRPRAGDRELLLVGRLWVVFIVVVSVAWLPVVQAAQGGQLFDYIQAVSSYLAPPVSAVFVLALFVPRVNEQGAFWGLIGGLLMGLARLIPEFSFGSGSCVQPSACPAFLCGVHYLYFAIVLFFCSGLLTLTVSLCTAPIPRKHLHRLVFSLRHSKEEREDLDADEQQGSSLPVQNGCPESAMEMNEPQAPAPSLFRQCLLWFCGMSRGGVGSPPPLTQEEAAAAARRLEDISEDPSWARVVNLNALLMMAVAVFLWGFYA
Description: Inhibitory activity against methyl-α-D-glucopyranoside uptake, CHO cells stably expressing human SGLT2. Format: cell-based. Particulars: inhibition of SGLT2, Table 2-1; read-out: IC50 value. An excerpt:
Evaluation of inhibitory activity against methyl-α-D-glucopyranoside uptake of human Na^+-glucose cotransporter (SGLT1 and SGLT2)
2) Construction of Human SGLT2 Expression Vector
Human SGLT2 cDNA was amplified by PCR with a cDNA library derived from human kidney (Clontech) as a template, synthetic DNA primers and KOD+ DNA Polymerase. The amplified cDNA was inserted into pcRII-Topo vector by using a Topo TA Cloning Dual Promoter kit. E. coli competent cells (TPO10) were transformed with the plasmid vector, cultured in LB medium containing ampicillin (50 mg/L) to grow ampicillin-resistant clones. The plasmid vector containing human SGLT2 cDNA was purified from the clone in a standard manner. Human SGLT2 cDNA added restriction enzyme recognition sites (Xho I at 5′-end, Hind III at 3′-end) was amplified by PCR with the plasmid vector as a template, synthetic DNA primers containing an additional restriction enzyme recognition site and KOD+ DNA Polymerase. This amplified cDNA was digested with Xho I and Hind III, and ligated into expression vector pcDNA3.1(−) digested with Xho I and Hind III by using a Rapid DNA Ligation kit. E. coli competent cells (DH5α) were transformed with the ligated expression vector and grown in ampicillin-containing LB medium. Human SGLT2 expression vector was purified from the ampicillin-resistant clone in a standard manner.
3) Establishment of Cell Lines Stably Expressing Human SGLT1 or Human SGLT2
The human SGLT1 expression vector or the human SGLT2 expression vector was digested with the restriction enzyme Pvu I and transfected into CHO-Kl cells with FuGENE (Roche Diagonostics). After the transfection, the cells were cultured at 37° C. in the presence of 5% CO2 for about 3 weeks in DMEM medium (Gibco) containing penicillin (50 U/mL, SIGMA), streptomycin (50 mg/L, SIGMA), geneticin (200 mg/L, Nacalai Tesque, Inc., Japan) and 20% fetal bovine serum to obtain geneticin-resistant clones. Among these clones, clones stably expressing human SGLT1 or human SGLT2 were selected by the evaluating the sodium-dependent uptake activity of sugar (methyl-α-D-glucopyranoside).
4) Evaluation of Inhibitory Activity Against methyl-α-D-glucopyranoside uptake
Cell lines stably expressing human SGLT1 or human SGLT2 CHO were seeded in 96-well culture plates at a density of 30000 to 40000 cells/well and cultured for 4 to 6 days. The medium in these plates was removed and replaced by 150 μL/well pretreatment buffer (i.e., a buffer containing 140 mM choline chloride, 2 mM potassium chloride, 1 mM calcium chloride, 1 mM magnesium chloride, 10 mM 2-[4-(2-hydroxyethyl)-1-piperazinyl]ethanesulfonic acid and tris(hydroxymethyl)aminomethane, pH 7.4), and the plates were incubated at 37° C. for 20 minutes. The pretreatment buffer in the plates was removed, replaced by 50 μL/well fresh pretreatment buffer, and the plates were incubated at 37° C. for 20 minutes. Methyl-α-D-(U—^14C)glucopyranoside (6.3 mL, Amersham Pharmacia Biotech, 200 mCi/L) was added to and mixed with 100 mL buffer (i.e., a buffer containing 140 mM sodium chloride, 2 mM potassium chloride, 1 mM calcium chloride, 1 mM magnesium chloride, 1 mM methyl-α-D-glucopyranoside, 10 mM [4-(2-hydroxyethyl)-1-piperazinyl]ethanesulfonic acid and tris(hydroxymethyl)aminomethane, pH 7.4), which was used as uptake buffer. Test compounds were dissolved into uptake buffer and these test compound solutions were used for evaluating inhibitory activity. Uptake buffer without a test compound was used as a control solution. Moreover, for use in measuring baseline uptake in the absence of sodium, sodium-free solution was prepared in the same manner to contain 140 mM choline chloride instead of sodium chloride. The pretreatment buffer was removed from each well of the plates and replaced by 35 μL/well test compound solutions, control solution or sodium-free solution, and the plates were incubated at 37° C. for 45 minutes. […]

Assay [2] deals with db/db mice. Description: Study for glucose lowering effect in db/db mouse. Format: in vivo. As to conditions: for inhibition in vivo at 0.3 mg/kg: Mus musculus; for inhibition in vivo at 0.3 mg/kg / Percent reduction of blood glucose (%) 6 hours after administration: 6 hours. The protocol:
Study for Glucose Lowering Effect in dB/dB Mouse
A study for glucose lowering effect was conducted using db/db mice (purchased from Clea Japan, Inc., male, 9 to 11 weeks old), type 2 diabetic model mice. On the day of the study, body weights and blood glucose levels were measured prior to the start of testing. Measurement of the blood glucose levels was performed using a simple blood glucose meter (manufactured by Bayer HealthCare, Dexter-Z II). The mice were allocated to some groups consisting of 5 mice each so that homogeneity of body weights or blood glucose levels among groups would be ensured. Blood collection was carried out by making an incision on the tip of the tail and taking the blood therefrom. On the day of the study, the test compounds were suspended in 0.5% carboxymethylcellulose solution (CMC solution), and the dosing solutions of which concentration was adjusted to either 0.3 mg/10 mL or 3 mg/10 mL were prepared. The dosing solutions were orally administered by gavage for mice in 10 mL/kg. To the control group, only a 0.5% CMC solution was orally administered in 10 mL/kg. Blood was collected prior to or sequentially after administration of test compounds by above method. The blood glucose levels were determined using a hexokinase method (AutoSera S GLU, manufactured by Daiichi Pure Chemicals Co., Ltd.). A percent reduction of blood glucose relative to control group at each time point after administration of test compounds was calculated by the following equation.
Percent reduction of blood glucose (%)={blood glucose level in the control group (mg/dL)-blood glucose level in the test compound group (mg/dL)}/blood glucose level in the control group (mg/dL)×100

[3] abbreviates: po, 0.3 mg/kg administration, read-out: reduction of blood glucose 6 hours after administration.
The mark [4] stands for this setting: oral, 0.3 mg/kg, relative to control group, Table 3-1, read-out: Percent reduction of blood glucose (%) 6 hours after administration.
Setting [5] is: oral, 0.3 mg/kg, relative to control group, Table 3-2.
Setting [6] is: oral, 3.0 mg/kg, relative to control group, Table 3-2.

Read-outs that look alike come from different tables or passages of the source.

For the compound `OC[C@H]1O[C@]2(OCc3cc(Cl)c(Cc4ccc(C(F)(F)F)cc4)cc32)[C@H](O)[C@@H](O)[C@@H]1O` [Example 13, (1S,3′R,4′S,5′S,6′R)-5-chloro-6-[(4-trifluoromethylphenyl)methyl]-3′,4′,5′,6′-tetrahydro-6′-(hydroxymethyl)-spiro[isobenzofuran-1(3H),2′-[2H]pyran]-3′,4′,5′-triol], in assay [1], the IC50 (commonly the concentration that inhibits the measured activity by half) amounted to 1.7 nM. Besides, the inhibition in vivo at 0.3 mg/kg in assay [2] (setting [3]) is at least 25%.
As for `CC(=O)c1ccc(Cc2cc3c(cc2Cl)CO[C@]32O[C@H](CO)[C@@H](O)[C@H](O)[C@H]2O)cc1` [Example 12, (1S,3′R,4′S,5′S,6′R)-6-[(4-acetylphenyl)methyl]-5-chloro-3′,4′,5′,6′-tetrahydro-6′-(hydroxymethyl)-spiro[isobenzofuran-1(3H),2′-[2H]pyran]-3′,4′,5′-triol], in assay [1], the IC50 worked out at 1.5 nM. Moreover, the inhibition in vivo at 0.3 mg/kg in assay [2] (setting [4]) came out at 27%.
For the compound `CCCc1ccc(Cc2cc3c(cc2C)CO[C@]32O[C@H](CO)[C@@H](O)[C@H](O)[C@H]2O)cc1` [Example 25, (1S,3′R,4′S,5′S,6′R)-3′,4′,5′,6′-tetrahydro-6′-(hydroxymethyl)-5-methyl-6-[(4-propylphenyl)methyl]-spiro[isobenzofuran-1(3H),2′-[2H]pyran]-3′,4′,5′-triol], the IC50 in assay [1] is 2.3 nM. Also, in assay [2] (setting [3]), the inhibition in vivo at 0.3 mg/kg was at least 25%.
The corresponding values for `Cc1ccc(Cc2cc3c(cc2F)CO[C@]32O[C@H](CO)[C@@H](O)[C@H](O)[C@H]2O)cc1` [Example 18, (1S,3′R,4′S,5′S,6′R)-5-fluoro-3′,4′,5′,6′-tetrahydro-6′-(hydroxymethyl)-6-[(4-methylphenyl)methyl]-spiro[isobenzofuran-1(3H),2′-[2H]pyran]-3′,4′,5′-triol] are 1.7 nM and at least 25%.
`CCc1ccc(Cc2cc3c(cc2Cl)CO[C@]32O[C@H](CO)[C@@H](O)[C@H](O)[C@H]2O)s1` [Example 29, (1S,3′R,4′S,5′S,6′R)-5-chloro-6-[(5-ethylthiophen-2-yl)methyl]-3′,4′,5′,6′-tetrahydro-6′-(hydroxymethyl)-spiro[isobenzofuran-1(3H),2′-[2H]pyran]-3′,4′,5′-triol]: the IC50 in assay [1] is 1.5 nM.
Regarding `OC[C@H]1O[C@]2(OCc3cc(Cl)c(Cc4cc5ccccc5s4)cc32)[C@H](O)[C@@H](O)[C@@H]1O` [Example 28, (1S,3′R,4′S,5′S,6′R)-6-[(benzothiophen-2-yl)methyl]-5-chloro-3′,4′,5′,6′-tetrahydro-6′-(hydroxymethyl)-spiro[isobenzofuran-1(3H),2′-[2H]pyran]-3′,4′,5′-triol], the IC50 in assay [1] amounted to 1.4 nM.
For `CCOc1ccc(Cc2cc3c(cc2F)CO[C@]32O[C@H](CO)[C@@H](O)[C@H](O)[C@H]2O)cc1` [Example 17, (1S,3′R,4′S,5′S,6′R)-6-[(4-ethoxyphenyl)methyl]-5-fluoro-3′,4′,5′,6′-tetrahydro-6′-(hydroxymethyl)-spiro[isobenzofuran-1(3H),2′-[2H]pyran]-3′,4′,5′-triol], in assay [1], the IC50 amounted to 2.6 nM. Further, the inhibition in vivo at 0.3 mg/kg in assay [2] (setting [4]) was determined as 33%.
With `CSc1ccc(Cc2cc3c(cc2Cl)CO[C@]32O[C@H](CO)[C@@H](O)[C@H](O)[C@H]2O)cc1` [Example 3, (1S,3′R,4′S,5′S,6′R)-5-chloro-3′,4′,5′,6′-tetrahydro-6′-(hydroxymethyl)-6-[(4-(methylthio)phenyl)methyl]-spiro[isobenzofuran-1(3H),2′-[2H]pyran]-3′,4′,5′-triol], in assay [1], the IC50 is 1.3 nM.
Consider `COc1ccc(Cc2cc3c(cc2Cl)CO[C@]32O[C@H](CO)[C@@H](O)[C@H](O)[C@H]2O)cc1` [Example 4, (1S,3′R,4′S,5′S,6′R)-5-chloro-3′,4′,5′,6′-tetrahydro-6′-(hydroxymethyl)-6-[(4-methoxyphenyl)methyl]-spiro[isobenzofuran-1(3H),2′-[2H]pyran]-3′,4′,5′-triol], for which the IC50 in assay [1] is 1 nM.
As for `Cc1ccc(Cc2cc3c(cc2Cl)CO[C@]32O[C@H](CO)[C@@H](O)[C@H](O)[C@H]2O)cc1` [Example 2, (1S,3′R,4′S,5′S,6′R)-5-chloro-3′,4′,5′,6′-tetrahydro-6′-(hydroxymethyl)-6-[(4-methylphenyl)methyl]-spiro[isobenzofuran-1(3H),2′-[2H]pyran]-3′,4′,5′-triol], the IC50 in assay [1] was determined as 1.2 nM.
For `CC(C)c1ccc(Cc2ccc3c(c2)C2(OC3)OC(CO)C(O)C(O)C2O)cc1` (stereo not drawn) [Comparative Compound 2, 1,1-anhydro-1-C-[5-(4-isopropylphenyl)methyl-2-(hydroxymethyl)phenyl]-β-glucopyranose, reference compound], the “Percent reduction of blood glucose (%) 6 hours after administration” value in assay [2] (oral, 0.3 mg/kg, relative to control group, Table 3-1) is on record as 16%; in assay [2] (setting [5]), 16%; in assay [2] (setting [6]) it was 53%. Moreover, the “Percent reduction of blood glucose (%) 24 hours after administration” value in assay [2] (setting [5]) came to 4.9%; in assay [2] (setting [6]) it was 13%.
